The target of assay [1] is T1, Adenosine receptor A3 (Homo sapiens, UniProt P0DMS8).
T1 sequence (P0DMS8 whole entry): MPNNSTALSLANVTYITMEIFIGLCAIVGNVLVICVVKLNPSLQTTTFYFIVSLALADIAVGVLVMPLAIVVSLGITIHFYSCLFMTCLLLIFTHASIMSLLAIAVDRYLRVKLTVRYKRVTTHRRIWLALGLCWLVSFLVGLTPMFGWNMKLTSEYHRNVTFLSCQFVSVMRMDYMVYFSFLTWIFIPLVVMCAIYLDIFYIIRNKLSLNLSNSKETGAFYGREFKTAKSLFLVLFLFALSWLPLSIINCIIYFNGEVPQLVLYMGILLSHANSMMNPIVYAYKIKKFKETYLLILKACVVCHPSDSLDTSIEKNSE
Briefly: Binding affinity for human Adenosine A3 receptor using [125 I]-IABMECA.

Assay [2] deals with T2, Adenosine receptor A1 (Homo sapiens, UniProt P30542).
T2 sequence (P30542 whole entry): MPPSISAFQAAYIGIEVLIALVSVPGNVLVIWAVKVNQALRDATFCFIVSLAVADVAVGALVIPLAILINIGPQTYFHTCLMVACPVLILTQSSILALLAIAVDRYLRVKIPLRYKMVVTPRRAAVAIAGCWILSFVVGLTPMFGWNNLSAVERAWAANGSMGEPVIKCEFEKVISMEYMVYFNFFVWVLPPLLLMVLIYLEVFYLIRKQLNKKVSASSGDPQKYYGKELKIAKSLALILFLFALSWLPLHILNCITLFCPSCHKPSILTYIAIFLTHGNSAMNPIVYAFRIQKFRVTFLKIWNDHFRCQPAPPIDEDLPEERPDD
Description: In vitro binding affinity towards human adenosine A1 receptor by [3H]DPCPX displacement.

For assay [3], the target named is T3, Adenosine receptor A2b (Homo sapiens) (UniProt P29275).
T3 sequence (whole entry): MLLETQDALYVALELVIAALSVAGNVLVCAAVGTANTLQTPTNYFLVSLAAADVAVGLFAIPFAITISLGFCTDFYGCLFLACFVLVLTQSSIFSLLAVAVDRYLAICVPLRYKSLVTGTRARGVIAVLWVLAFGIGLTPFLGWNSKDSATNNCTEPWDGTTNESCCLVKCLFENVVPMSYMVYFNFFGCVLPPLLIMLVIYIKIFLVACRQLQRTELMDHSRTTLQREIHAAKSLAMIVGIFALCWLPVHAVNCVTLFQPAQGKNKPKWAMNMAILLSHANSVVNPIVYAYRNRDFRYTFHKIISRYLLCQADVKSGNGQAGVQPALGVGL
Briefly: In vitro binding affinity towards human adenosine A2B receptor by [3H]DPCPX displacement at 10 uM.

Assay [4] addresses T4, Adenosine receptor A2a (Homo sapiens, UniProt P29274).
Description: Tested for binding affinity towards human adenosine A2A receptor using [3H]ZM-241385 as radioligand
The target of assay [5] is T1, Adenosine receptor A3. The experiment in a line: Inhibition of [125 I]-IABMECA binding to human adenosine A3 receptor.
Assay [6] has as its target T5, Adenosine receptor A3 (Homo sapiens) (UniProt P0DMS8).
T5 sequence (whole entry): T1 sequence (P0DMS8 whole entry)
The experiment in a line: Relative potency for human adenosine A3 receptor (Ki value).

The target in assay [7] is Adenosine receptors; A1 & A3 (Homo sapiens) (UniProt P30542+P0DMS8). Briefly: Selectivity for adenosine A1 and A3 receptors. It counts as protein assay.
The target of assay [8] is T2, Adenosine receptor A1. Briefly: Inhibition of cAMP formation in CHO cells expressing human adenosine A1 receptor. It is filed as cell-based.
Assay [9] addresses T6, Adenosine receptor A1 (Homo sapiens) (UniProt P30542).
T6 sequence (whole entry): T2 sequence (P30542 whole entry)
Briefly: Relative potency for human adenosine A1 receptor (Ki value).

The target of assay [10] is T4, Adenosine receptor A2a. Briefly: Percent displacement of [3H]ZM-241,385 from human adenosine A2A receptor at 10 uM.
The target of assay [11] is T4, Adenosine receptor A2a. Briefly: Binding affinity for human Adenosine A2A receptor using [3H]ZM-241385.
The target of assay [12] is T3, Adenosine receptor A2b (Homo sapiens). The experiment in a line: Binding affinity for human adenosine A2B receptor using [3H]DPCPX at 10 uM as percent displacement.
The target in assay [13] is T6, Adenosine receptor A1 (Homo sapiens). Briefly: Percent displacement of [3H]DPCPX from human adenosine A1 receptor at 10 uM. A general note: In a radioligand displacement assay an active substance lowers the binding of a labelled ligand.
Assay [14] has as its target T5, Adenosine receptor A3 (Homo sapiens). Briefly: Binding affinity for human adenosine A3 receptor using [125 I]-IABMECA; insoluble.
Assay [15] has as its target T6, Adenosine receptor A1 (Homo sapiens). Briefly: Binding affinity for human adenosine A1 receptor using [3H]DPCPX; insoluble.
Assay [16] deals with T4, Adenosine receptor A2a. The experiment in a line: Binding affinity for human adenosine A2A receptor using [3H]ZM-241385; insoluble.
The target of assay [17] is T3, Adenosine receptor A2b (Homo sapiens). Briefly: Percent displacement of [3H]DPCPX from human adenosine A2B receptor at 10 uM; insoluble.

In general, pKi refers to the Ki on a negative log10 scale, so that one unit is a factor of ten. Low values mean a large Ki, high ones a small Ki. In general, pIC50 refers to the IC50 on a negative log10 scale, so that one unit is a factor of ten. Lower therefore signals a high IC50.

Structures are written as SMILES. pIC50, pKi: −log10 of the molar value.

T4 sequence (P29274 whole entry): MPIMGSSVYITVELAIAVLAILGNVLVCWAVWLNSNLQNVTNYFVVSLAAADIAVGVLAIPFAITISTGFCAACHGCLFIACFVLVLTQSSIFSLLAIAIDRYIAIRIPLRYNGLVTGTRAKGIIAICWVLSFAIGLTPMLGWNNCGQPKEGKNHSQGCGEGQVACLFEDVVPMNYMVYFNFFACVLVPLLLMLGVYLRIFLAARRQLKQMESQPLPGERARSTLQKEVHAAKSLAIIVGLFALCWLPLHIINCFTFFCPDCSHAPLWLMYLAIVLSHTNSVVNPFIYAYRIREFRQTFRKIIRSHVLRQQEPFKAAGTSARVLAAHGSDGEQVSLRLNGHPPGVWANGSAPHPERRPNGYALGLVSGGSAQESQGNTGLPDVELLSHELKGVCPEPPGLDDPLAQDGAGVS

`Nc1nc(N=NNC(=O)Nc2cccc(Cl)c2)nc2c1ncn2C1O[C@H](CO)[C@@H](O)[C@H]1O` (some centres undefined): the figures for the negative-log Ki (pKi) in [1] and in [2] were 7.23 and 7.82, respectively.

In [3], `Nc1nc(/N=N/NC(=O)NCc2ccccc2)nc2c1ncn2[C@@H]1O[C@H](CO)[C@@H](O)[C@H]1O` returned a Displacement of 9%. Also, the negative logarithm of the Ki (pKi) in assay [2] was 7.38; in assay [4], 7.60; in assay [5], 6.83.

In the case of `O=C(N/N=N/c1nc(NC2CCCC2)c2ncn([C@@H]3O[C@H](CO)[C@@H](O)[C@H]3O)c2n1)Nc1ccccc1`, the Relative potency in [6] and in assay [9] was 1 in each case. In addition, the Displacement in [3] came out at 10%. The molecule further yielded a Selectivity in assay [7] of 214. Further, the negative-log Ki (pKi) is 8.55 in [2], 6.68 in assay [4] and 6.22 in assay [5]. The pIC50 in assay [8] is 8.82.

`OC[C@H]1O[C@@H](n2cnc3c(NC4CCCC4)nc(Cl)nc32)[C@H](O)[C@@H]1O`: in [4], the negative logarithm of the Ki (pKi) was 6.19.

`Nc1nc(/N=N/NC(=O)Nc2cccc(Cl)c2)nc2c1ncn2C1O[C@H](CO)[C@@H](O)[C@H]1O` (some centres undefined): the Displacement in [3] is 64%; in assay [10], 29.9%.

`Nc1nc(/N=N/NC(=O)NC2CCCCC2)nc2c1ncn2[C@@H]1O[C@H](CO)[C@@H](O)[C@H]1O` displayed a Displacement in assay [3] of 6%. Besides, the pKi in assay [1] is 7.20; in assay [2], 8.24; in [11], 7.60.

For `Nc1nc(/N=N/NC(=O)c2ccccc2)nc2c1ncn2[C@@H]1O[C@H](CO)[C@@H](O)[C@H]1O`, the pKi is 6.72 in assay [1], 5.72 in assay [2] and 6.00 in assay [11]. The Displacement in assay [12] was 8%.

The molecule `Nc1nc(/N=N/NC(=O)Nc2nccs2)nc2c1ncn2[C@@H]1O[C@H](CO)[C@@H](O)[C@H]1O` had a Displacement in assay [3] of 79%. The negative logarithm of the Ki (pKi) is 7.62 in assay [2], 7.60 in [4] and 6.21 in assay [5].

Consider `Nc1nc(/N=N/NC(=O)Oc2ccccc2)nc2c1ncn2C1O[C@H](CO)[C@@H](O)[C@H]1O` (some centres undefined), for which the Displacement in [3] was 6%; in assay [10], 38.9%; in [13], 43%.

`O=C(N/N=N/c1nc(Nc2ccccc2)c2ncn([C@@H]3O[C@H](CO)[C@@H](O)[C@H]3O)c2n1)Nc1ccccc1` came in with a Displacement in assay [3] of 9%. Besides, the pKi was 6.37 in [2], 7.61 in assay [4] and 7.05 in assay [5].

On to `Nc1nc(/N=N/NC(=O)Nc2cccc(C(F)(F)F)c2)nc2c1ncn2C1O[C@H](CO)[C@@H](O)[C@H]1O` (some centres undefined), for which the Other entry in assay [14], in assay [15], in assay [16] and in assay [17] was “Insoluble” in each case.

`Nc1nc(/N=N/NC(=O)Nc2ccccc2)nc2c1ncn2[C@@H]1O[C@H](CO)[C@@H](O)[C@H]1O` showed a Displacement in assay [3] of 54%. For the same molecule, the pKi in assay [1] was 6.96; in assay [2], 8.21; in [11] it was 7.60.

In the case of `NC(=O)/N=N/Nc1nc(Nc2ccccc2)c2ncn([C@@H]3O[C@H](CO)[C@@H](O)[C@H]3O)c2n1`, the Displacement worked out at 10% in [3] and 17.7% in [10]. Further, the negative logarithm of the Ki (pKi) in assay [2] is 6.69; in assay [5] it was 6.76.

Turning to `Nc1nc(/N=N/c2ccccc2)nc2c1ncn2[C@@H]1O[C@H](CO)[C@@H](O)[C@H]1O`, the negative-log Ki (pKi) in assay [1] was 6.96; in assay [11] it was 6.74. The same molecule displayed a Displacement in [12] of 11%.

In the case of `COc1ccc(NC(=O)/N=N/Nc2nc(N)c3ncn([C@@H]4O[C@H](CO)[C@@H](O)[C@H]4O)c3n2)cc1`, the Displacement in assay [3] was 15%. In addition, the results for the pKi in assay [2], in assay [4] and in assay [5] were 7.70, 7.60 and 7.14, respectively.

Molecule `Nc1nc(/N=N/NC(=O)Nc2ccccc2Cl)nc2c1ncn2[C@@H]1O[C@H](CO)[C@@H](O)[C@H]1O` returned a Displacement in assay [3] of 30%. Moreover, the pKi in assay [2] is 7.64; in assay [4], 7.35; in assay [5] it was 6.75.

As to `Nc1nc(N=O)nc2c1ncn2[C@@H]1O[C@H](CO)[C@@H](O)[C@H]1O`, the pKi in [1] was 6.24; in assay [11], 6.14. Besides, the values for the Displacement in assay [12] and in assay [13] were 14% and 40%, respectively.

For `O=C(N/N=N/c1nc(NCC(c2ccccc2)c2ccccc2)c2ncn([C@@H]3O[C@H](CO)[C@@H](O)[C@H]3O)c2n1)Nc1ccccc1`, the Displacement in assay [3] worked out at 10%. The pKi was 8.51 in assay [2], 6.01 in assay [4] and 6.85 in [5].

In turn, `COc1ccccc1NC(=O)/N=N/Nc1nc(N)c2ncn([C@@H]3O[C@H](CO)[C@@H](O)[C@H]3O)c2n1` came in with a Displacement in assay [3] of 18%. The pKi was 7.70 in [2], 6.90 in assay [4] and 7.09 in assay [5].

The molecule `Nc1nc(NN=NC(=O)Oc2ccccc2)nc2c1ncn2C1O[C@H](CO)[C@@H](O)[C@H]1O` (some centres undefined) gave a pKi in [5] of 6.24.

Consider `Nc1nc(/N=N/NC(=O)Nc2ccc(Cl)cc2)nc2c1ncn2[C@@H]1O[C@H](CO)[C@@H](O)[C@H]1O`, for which the Displacement in assay [3] stood at 21%; in assay [10], 4.4%. Besides, the negative logarithm of the Ki (pKi) in assay [1] was 7.41; in assay [2], 7.82.

In turn, `CCNC(=O)/N=N/Nc1nc(N)c2ncn([C@@H]3O[C@H](CO)[C@@H](O)[C@H]3O)c2n1` had a Displacement in assay [3] of 15%. Moreover, the figures for the pKi in [1], in assay [2] and in [11] were 6.95, 7.35 and 7.72, respectively.

As to `NC(=O)/N=N/Nc1nc(N)c2ncn([C@@H]3O[C@H](CO)[C@@H](O)[C@H]3O)c2n1`, in [3], the Displacement was determined as 9%. Moreover, the results for the pKi in assay [1], in [2] and in assay [11] were 6.68, 6.85 and 7.06, respectively.

The values are drawn from ChEMBL document CHEMBL1136764, “N6-cyclopentyl-2-(3-phenylaminocarbonyltriazene-1-yl)adenosine (TCPA), a very selective agonist with high affinity for the human adenosine A1 receptor” (J Med Chem, 2003).
